Assay results: patent US20230227445A1, “BENZAMIDE COMPOUND AND USE THEREOF” (HUMANWELL HEALTHCARE (GROUP) CO., LTD., priority 2020, published 2023)

Columns and labels:
[1] = Pharmacokinetic assay in mouse; assay type: in vivo, ICR mice
Method: For a mouse pharmacokinetic assay, male ICR mice (20 g to 25 g) were selected and fasted overnight. Three mice were intragastrically administered with 10 mg/kg of the corresponding compound. The blood of the mice was collected before the administration and at 15 min, 30 min, 1 h, 2 h, 4 h, 8 h, and 24 h after the administration. The blood samples were centrifuged at 4° C. for 6 minutes at 6,800 g, plasma was collected and stored at −80° C.
The supernatant was mixed with 3 times the amount of water, and an appropriate amount of the mixed solution was taken for LC-MS/MS analysis. The primary pharmacokinetic parameters were analyzed by WinNonlin 7.0 software non-atrioventricular model.

[2] = test system: histamine/citric acid-stimulated cough in guinea pig; test: Efficacy test for histamine/citric acid-stimulated cough in guinea pig; assay type: in vivo; conditions: guinea pigs, nasal drops, 0.17 mg/kg to 1.5 mg/kg, histamine/citric acid stimulation
Method: Guinea pigs were adaptively fed for 3 days to 7 days before being grouped. When the body weight of the guinea pigs reached 300 g to 400 g, they were numbered and randomly grouped.
Compounds or an excipient were administered to guinea pigs by nasal drops 0.25 hour to 24 hours before the start of the cough assessment. The administration dose of the test sample ranged from 0.17 mg/kg to 1.5 mg/kg. For the cough assessment, the guinea pigs were placed in a whole-body volume scan box for adaptation, and then, they were provided with histamine nebulization and then citric acid nebulization. […]
(§1) The experimental data was statistically analyzed by one-way ANOVA to analyze and compare data of the various groups. The statistical analysis result p<0.05 was regarded as a significant difference. The t-test was employed for difference comparison between any two.

rat taste = test: Taste test in rat (water vs 0.3 mM aqueous quinine solution intake); assay type: in vivo, SD rats
Method: SD rats were administered with the corresponding compound after 3 days of overnight water prohibition training. Each rat was supplied with 1 bottle of water and 1 bottle of 0.3 mM aqueous quinine solution half an hour after the administration. After 15 min of water supply, the bottles were removed. The intake amount of water and the intake amount of the 0.3 mM aqueous quinine solution were measured, respectively. The taste influence of the compound on SD rats was evaluated based on the difference between the intake amount of water and the intake amount of the aqueous quinine solution.

[3] = test system: ATP/citric acid-stimulated cough in guinea pig; test: Efficacy test for ATP/citric acid-stimulated cough in guinea pig; assay type: in vivo; conditions: guinea pigs, nasal drops, 0.17 mg/kg to 1.5 mg/kg, ATP/citric acid stimulation
Method: Guinea pigs were adaptively fed for 3 days to 7 days before being grouped. When the body weight of the guinea pigs reached 300 g to 400 g, they were numbered and randomly grouped. Compounds or an excipient were administered to guinea pigs by nasal drops 0.25 hour to 24 hours before the start of the cough assessment. The administration dose of the test sample ranged from 0.17 mg/kg to 1.5 mg/kg. For the cough assessment, the guinea pigs were placed in a whole-body volume scan box for adaptation, and then provided with ATP nebulization, and a few minutes later, they were provided with citric acid nebulization. The cough times within 15 minutes and the cough latency were recorded from the beginning of citric acid nebulization.
as §1

hP2X3 receptor = biological target: T1, hP2X3 receptor (Homo sapiens, UniProt P56373); test: Antagonistic activity against hP2X3 receptor by FLIPR calcium flow assay; assay type: cell-based
T1 construct: expressed in transfected cells
T1 sequence (P56373 1-397): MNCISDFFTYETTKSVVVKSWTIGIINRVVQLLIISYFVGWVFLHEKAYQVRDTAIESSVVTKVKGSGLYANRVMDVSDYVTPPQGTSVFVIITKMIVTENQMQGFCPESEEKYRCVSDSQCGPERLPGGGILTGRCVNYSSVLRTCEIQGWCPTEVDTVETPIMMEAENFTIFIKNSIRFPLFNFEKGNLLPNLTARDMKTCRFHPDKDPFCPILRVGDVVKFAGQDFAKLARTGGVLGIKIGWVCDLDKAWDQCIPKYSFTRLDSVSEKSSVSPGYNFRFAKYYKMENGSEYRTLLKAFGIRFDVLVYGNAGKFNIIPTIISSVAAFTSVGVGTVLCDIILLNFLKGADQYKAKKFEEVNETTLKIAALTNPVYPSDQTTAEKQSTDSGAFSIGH
Method: The antagonistic activity of hP2X3 antagonists against hP2X3 receptor was evaluated by means of FLIPR Calcium 4 Assay Kit (Molecular Devices, R8141) and FLIPR TETRA instrument (Molecular Devices, 0296) by detecting calcium flow signals. 24h before the experiment, human cells, which had been stably transfected with hP2X3 receptors, were plated on a 384-well plate at 2×10^5 cells/mL, with 50 μL of cell suspension per well, and the plate was cultured in an incubator (37° C., 5% CO2) for 16 h to 24 h. The test compound solution (20 to 50 mM DMSO stock solution) with a concentration of 180 times the required concentration was prepared using DMSO. The stock solution was added to the 384-well plate at 500 nL per well, supplemented with 30 μL of FLIPR Assay buffer (1×HBSS+2 mM CaCl2 20 mM HEPES containing 1.26 mM Ca^2+). The 384-well plate was shaken for 20 to 40 min to mix evenly. An agonist (α, β-meATP) with a concentration of 3 times the required concentration (required final concentration was 400 nM) was prepared with FLIPR Assay buffer, and was added to another 384-well plate at 45 μL per well. The culture plate, on which the cells were plated one day ago, was taken, the cell supernatant was sucked and discarded, each well was added with 30 μL of Dye (FLIPR® Calcium 4 Assay Kit, diluted with FLIPR buffer), and then the plate was incubated for 1h. 15 μL of compound was added to each well of cells (using FLIPR sample injector). After 15 minutes, 22.5 μL of the agonist was added to each well, and the fluorescence signal (exciting light wavelength ranging from 470 nm to 495 nm, and emission wavelength ranging from 515 nm to 575 nm) was detect. […] An inhibition effect curve of the compound was fitted on the software GraphpadPrism6, and the IC50 value was calculated.

[4] = Pharmacokinetic assay in rat; assay type: in vivo, SD rats
Method: For a rat pharmacokinetic assay, male SD rats (180 g to 240 g) were selected and fasted overnight. Three rats were intragastrically administered with 10 mg/kg of the corresponding compound. The blood of the rats was collected before the administration and at 15 min, 30 min, 1 h, 2 h, 4 h, 8 h, and 24 h after the administration. The blood samples were centrifuged at 4° C. for 6 minutes at 8,000 r/min, and plasma was collected and stored at −20° C. Plasma at each time point was taken, and added with 3 to 5 times the amount of an internal standard-containing acetonitrile solution to mix, and the mixture was vortex mixed for 1 minute, and centrifuged at 4° C. for 10 minutes at 13,000 r/min. The supernatant was taken and mixed with 3 times the amount of water, and an appropriate amount of the mixed solution was taken for LC-MS/MS analysis. The primary pharmacokinetic parameters were analyzed by WinNonlin 7.0 software non-atrioventricular model.

[5] = mouse, plasma, po, male ICR mice, intragastric administration, 10 mg/kg
[6] = rat, plasma, po, male SD rats, intragastric administration, 10 mg/kg

Compound: Cc1cnc(-c2cc(O[C@@H]3CCOC3)cc(C(=O)N[C@H](C)c3cnc(C(F)(F)F)nc3)c2F)s1 [Compound I-1, 2-fluoro-3-(5-methylthiazol-2-yl)-5-(((R)-tetrahydrofuran-3-yl)oxy)-N—((R)-1-(2-(trifluoromethyl)pyrimidin-5-yl)ethyl)benzamide]
- pharmacokinetic properties in mouse compared with Reference compound 1 and Reference compound 2 (in words) ([1]; mouse assay, vs Reference compounds 1 and 2): significantly improved pharmacokinetic properties
- AUC(0-t) [1, 5]: 12100 ng·h/mL
- Cmax [1, 5]: 1550 ng/mL
- Tmax [1, 5]: 2 h
- half-life ([1]; mouse, plasma, po, male ICR mice, intragastric administration, 10 mg/kg, read-out: T½ (converted)): 2.3 h
- Average cough times within 15 min [2]: 10.8
- Cough inhibition rate vs. solvent [2]: 59.4%
- Water/aqueous quinine solution (ratio of water intake to aqueous quinine solution intake) (rat taste; SD rats, 30 mg/kg i.p, 0.3 mM quinine, 15 min supply half an hour after administration): 18.2
- interference on rat taste compared with Reference compound 1 (in words) (rat taste; vs positive reference compound): significantly less interference on rat taste
- Average cough times within 15 min [3]: 6.5
- Cough inhibition rate vs. solvent [3]: 67.2%
- IC50 (hP2X3 receptor; human cells stably transfected with hP2X3, agonist α,β-meATP 400 nM): 83 nM
- antagonistic activity against hP2X3 receptor compared with Reference compound 1 (in words) (hP2X3 receptor; vs Reference compound 1): better antagonistic activity
- pharmacokinetic properties in rat compared with reference compound 1 (in words) ([4]; rat model, vs reference compound 1): improved to certain extent
- AUC(0-t) [4, 6]: 5940 ng·h/mL
- Cmax [4, 6]: 569 ng/mL
- Tmax [4, 6]: 4 h
- half-life ([4]; rat, plasma, po, male SD rats, intragastric administration, 10 mg/kg, read-out: T½ (converted)): 3.61 h
